From PubChem BioAssay AID1963840 (Molecular Pharmacology Branch, DTP, NCI, 2024)
pIC50: −log10 of the molar value.

System: 695427-040-R-J1-PDC complex spheroid viability
Assay: Anticancer human tumor 695427-040-R-J1-PDC patient-derived colon adenocarcinoma cell line growth inhibition [POLQ]
Conditions: for pIC50: curve of first compound; for viability, T/C: stronger effect = lower value
Outline: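 Complex spheroid viability model combining PDC tumour cells with endothelial (HUVEC) and MSC stromal cells. Novobiocin, ART-558 or RP6685 were tested singly and in combination with standard and investigational anticancer drugs. Each was titrated in half-log steps from near clinical Cmax, or from 10 microM where Cmax was unknown.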

[1] = second compound 0.0316 µM, first compound 0.0316 µM
[2] = second compound 0.0316 µM, first compound 0.1 µM
[3] = second compound 0.0316 µM, first compound 0.316 µM
[4] = second compound 0.0316 µM, first compound 1 µM
[5] = second compound 0.0316 µM, first compound 3.16 µM
[6] = second compound 0.0316 µM, first compound 10 µM
[7] = second compound 0.1 µM, first compound 0.0316 µM
[8] = second compound 0.1 µM, first compound 0.1 µM
[9] = second compound 0.1 µM, first compound 0.316 µM
[10] = second compound 0.1 µM, first compound 1 µM
[11] = second compound 0.1 µM, first compound 3.16 µM
[12] = second compound 0.1 µM, first compound 10 µM
[13] = second compound 0.316 µM, first compound 0.0316 µM
[14] = second compound 0.316 µM, first compound 0.1 µM
[15] = second compound 0.316 µM, first compound 0.316 µM
[16] = second compound 0.316 µM, first compound 1 µM
[17] = second compound 0.316 µM, first compound 3.16 µM
[18] = second compound 0.316 µM, first compound 10 µM
[19] = second compound 1 µM, first compound 0.0316 µM
[20] = second compound 1 µM, first compound 0.1 µM
[21] = second compound 1 µM, first compound 0.316 µM
[22] = second compound 1 µM, first compound 1 µM
[23] = second compound 1 µM, first compound 3.16 µM
[24] = second compound 1 µM, first compound 10 µM
[25] = second compound 3.16 µM, first compound 0.0316 µM
[26] = second compound 3.16 µM, first compound 0.1 µM
[27] = second compound 3.16 µM, first compound 0.316 µM
[28] = second compound 3.16 µM, first compound 1 µM
[29] = second compound 3.16 µM, first compound 3.16 µM
[30] = second compound 3.16 µM, first compound 10 µM
[31] = second compound 10 µM, first compound 0.0316 µM
[32] = second compound 10 µM, first compound 0.1 µM
[33] = second compound 10 µM, first compound 0.316 µM
[34] = second compound 10 µM, first compound 1 µM
[35] = second compound 10 µM, first compound 3.16 µM
[36] = second compound 10 µM, first compound 10 µM
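Further: spheroids exposed to compounds for seven days.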
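Wherever viability, T/C is given: 100% = DMSO vehicle control viability.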

C#Cc1c(F)ccc2cc(O)cc(-c3ncc4c(N5CC6CCC(C5)N6)nc(OCC56CCCN5CC(F)C6)nc4c3F)c12 (stereo not drawn) + Nc1ccc(C#CCN(C(=O)Cc2ncc(C(F)(F)F)cc2C(F)(F)F)c2ccc(F)cc2)nn1
pIC50 (second compound 0.0316 µM): < 5.00 | pIC50 (second compound 0.1 µM): < 5.00 | pIC50 (second compound 0.316 µM): < 5.00 | pIC50 (second compound 1 µM): < 5.00 | pIC50 (second compound 3.16 µM): < 5.00 | pIC50 (second compound 10 µM): < 5.00 | viability, T/C [1]: 104% | viability, T/C [2]: 102% | viability, T/C [3]: 106% | viability, T/C [4]: 97.9% | viability, T/C [5]: 102% | viability, T/C [6]: 88.7% | viability, T/C [7]: 118% | viability, T/C [8]: 96.9% | viability, T/C [9]: 105% | viability, T/C [10]: 98.9% | viability, T/C [11]: 96.9% | viability, T/C [12]: 89.4% | viability, T/C [13]: 109% | viability, T/C [14]: 105% | viability, T/C [15]: 92.3% | viability, T/C [16]: 101% | viability, T/C [17]: 99.4% | viability, T/C [18]: 78.9% | viability, T/C [19]: 107% | viability, T/C [20]: 95.5% | viability, T/C [21]: 97.2% | viability, T/C [22]: 108% | viability, T/C [23]: 103% | viability, T/C [24]: 79.6% | viability, T/C [25]: 94.5% | viability, T/C [26]: 94.9% | viability, T/C [27]: 105% | viability, T/C [28]: 86.7% | viability, T/C [29]: 96% | viability, T/C [30]: 84.6% | viability, T/C [31]: 92% | viability, T/C [32]: 104% | viability, T/C [33]: 86.9% | viability, T/C [34]: 83.6% | viability, T/C [35]: 73.7% | viability, T/C [36]: 69.3%

CCc1cc2c(N3CCc4c(cc(Cn5ccnc5)cc4-c4cn(C)nc4C(F)(F)F)C3=O)cc(C)nc2c(OC)n1 + Nc1ccc(C#CCN(C(=O)Cc2ncc(C(F)(F)F)cc2C(F)(F)F)c2ccc(F)cc2)nn1
pIC50 (second compound 0.0316 µM): < 5.00 | pIC50 (second compound 0.1 µM): < 5.00 | pIC50 (second compound 0.316 µM): < 5.00 | pIC50 (second compound 1 µM): < 5.00 | pIC50 (second compound 3.16 µM): < 5.00 | pIC50 (second compound 10 µM): < 5.00 | viability, T/C [1]: 102% | viability, T/C [2]: 106% | viability, T/C [3]: 107% | viability, T/C [4]: 108% | viability, T/C [5]: 113% | viability, T/C [6]: 108% | viability, T/C [7]: 120% | viability, T/C [8]: 103% | viability, T/C [9]: 103% | viability, T/C [10]: 101% | viability, T/C [11]: 112% | viability, T/C [12]: 102% | viability, T/C [13]: 102% | viability, T/C [14]: 98.9% | viability, T/C [15]: 99.9% | viability, T/C [16]: 101% | viability, T/C [17]: 113% | viability, T/C [18]: 98.8% | viability, T/C [19]: 112% | viability, T/C [20]: 95.8% | viability, T/C [21]: 99.3% | viability, T/C [22]: 105% | viability, T/C [23]: 98.5% | viability, T/C [24]: 98.3% | viability, T/C [25]: 109% | viability, T/C [26]: 116% | viability, T/C [27]: 88.3% | viability, T/C [28]: 95.3% | viability, T/C [29]: 103% | viability, T/C [30]: 108% | viability, T/C [31]: 107% | viability, T/C [32]: 94.6% | viability, T/C [33]: 95.6% | viability, T/C [34]: 91.8% | viability, T/C [35]: 98.7% | viability, T/C [36]: 97.9%

CCc1cc2c(N3CCc4c(cc(Cn5ccnc5)cc4-c4cn(C)nc4C(F)(F)F)C3=O)ccnc2c(OC)n1 + Nc1ccc(C#CCN(C(=O)Cc2ncc(C(F)(F)F)cc2C(F)(F)F)c2ccc(F)cc2)nn1
pIC50 (second compound 0.0316 µM): < 5.00 | pIC50 (second compound 0.1 µM): < 5.00 | pIC50 (second compound 0.316 µM): < 5.00 | pIC50 (second compound 1 µM): < 5.00 | pIC50 (second compound 3.16 µM): < 5.00 | pIC50 (second compound 10 µM): < 5.00 | viability, T/C [1]: 102% | viability, T/C [2]: 106% | viability, T/C [3]: 94.6% | viability, T/C [4]: 95.8% | viability, T/C [5]: 105% | viability, T/C [6]: 96% | viability, T/C [7]: 115% | viability, T/C [8]: 112% | viability, T/C [9]: 101% | viability, T/C [10]: 100% | viability, T/C [11]: 105% | viability, T/C [12]: 102% | viability, T/C [13]: 118% | viability, T/C [14]: 115% | viability, T/C [15]: 93% | viability, T/C [16]: 104% | viability, T/C [17]: 103% | viability, T/C [18]: 87.6% | viability, T/C [19]: 116% | viability, T/C [20]: 95.1% | viability, T/C [21]: 102% | viability, T/C [22]: 104% | viability, T/C [23]: 114% | viability, T/C [24]: 84.5% | viability, T/C [25]: 116% | viability, T/C [26]: 104% | viability, T/C [27]: 93.6% | viability, T/C [28]: 104% | viability, T/C [29]: 103% | viability, T/C [30]: 90% | viability, T/C [31]: 101% | viability, T/C [32]: 93.2% | viability, T/C [33]: 101% | viability, T/C [34]: 110% | viability, T/C [35]: 97.7% | viability, T/C [36]: 96.7%

COc1cc2cc(C(=O)CCC(=O)O)sc2cc1OC + Nc1ccc(C#CCN(C(=O)Cc2ncc(C(F)(F)F)cc2C(F)(F)F)c2ccc(F)cc2)nn1
pIC50 (second compound 0.0316 µM): < 5.00 | pIC50 (second compound 0.1 µM): < 5.00 | pIC50 (second compound 0.316 µM): < 5.00 | pIC50 (second compound 1 µM): < 5.00 | pIC50 (second compound 3.16 µM): < 5.00 | pIC50 (second compound 10 µM): < 5.00 | viability, T/C [1]: 111% | viability, T/C [2]: 92% | viability, T/C [3]: 103% | viability, T/C [4]: 115% | viability, T/C [5]: 105% | viability, T/C [6]: 92.1% | viability, T/C [7]: 109% | viability, T/C [8]: 118% | viability, T/C [9]: 103% | viability, T/C [10]: 102% | viability, T/C [11]: 115% | viability, T/C [12]: 96.6% | viability, T/C [13]: 111% | viability, T/C [14]: 109% | viability, T/C [15]: 94.1% | viability, T/C [16]: 109% | viability, T/C [17]: 105% | viability, T/C [18]: 98.9% | viability, T/C [19]: 109% | viability, T/C [20]: 100% | viability, T/C [21]: 104% | viability, T/C [22]: 108% | viability, T/C [23]: 120% | viability, T/C [24]: 89.7% | viability, T/C [25]: 111% | viability, T/C [26]: 101% | viability, T/C [27]: 102% | viability, T/C [28]: 99.1% | viability, T/C [29]: 106% | viability, T/C [30]: 86.4% | viability, T/C [31]: 105% | viability, T/C [32]: 105% | viability, T/C [33]: 98.7% | viability, T/C [34]: 87.4% | viability, T/C [35]: 102% | viability, T/C [36]: 102%
